Key:
[1] = tested on: SD rats; assay: application of test substance onto dehaired abdominal skin of fattened SD rats for 2 weeks; weight of each fat measured; type: in vivo, rat; conditions: applied onto abdominal skin, 2 ml of 5 mg/ml ethanol solution daily for 2 weeks, n=3, p<0.05
[2] = orally administered, approximately 120 mg/day over 8 weeks; cited from earlier work

CC(C)[C@H](C)CC[C@@H](C)[C@H]1CC[C@H]2[C@@H]3CC=C4CC(=O)CC[C@]4(C)[C@H]3CC[C@]12C [campest-5-en-3-one]
reduction of the amount of subcutaneous fat compared with the control (ethanol solution) [1]: approximately 16%
subcutaneous fat reduction percentage [2]: 26%

Source: patent publication US20210177868A1, “NOVEL USE OF PHYTOSTENONE” (Daisankasei Co., Ltd., priority 2018, published 2021)
